Here are results for one compound from US20200108043A1, “COMPOUNDS AND COMPOSITIONS FOR EXTENDING LIFESPAN OF A SUBJECT” (YALE UNIVERSITY, priority 2017, published 2020).

The structures appear in SMILES notation.

For one assay, the system named is Saccharomyces cerevisiae. The assay can be described thus: High-Life (High throughput replicative Lifespan measurement) flow cytometry assay in MEP yeast. Type of assay: cell-based. Particulars: fresh samples from secondary source, 24 hours of culture. For orientation: Flow cytometry measures light scatter and fluorescence of single cells or particles in a stream.

The target of the next assay is T1, proteasome (Saccharomyces cerevisiae, UniProt P30656).
T1 construct: with 50 μg of total protein in 200 μL of lysis buffer; endogenous in cells; host or cells: S. cerevisiae BY4741 wild-type or ΔUBR2 cells, glass-bead lysate (total protein extract)
The experiment in a line: Proteasome assay with fluorogenic substrate Suc-LLVY-AMC on yeast protein extracts. In kind it is biochemical. The note with it: wild-type (BY4741) cells, presence vs absence of MPA. How it is done:
For protein extraction, 50 mL of cells were grown for 18 hours to an OD600 of approximately 0.8, then transferred to a 50 mL conical tube and centrifuged at 4255×g for 5 minutes at room temperature. The supernatant was discarded, and the cells were re-suspended in 150 μL of cold lysis buffer (50 mM Tris-HCl, pH 7.5, 0.5 mM EDTA, 5 mM MgCl2, with complete ULTRA mini protease inhibitor tablets, EDTA free) and transferred to a 1.5 mL tube. A ¼ volume of 500-750 μm glass beads (Acros Organics 397641000) was added to each tube. For 10 rounds, the tubes were chilled in ice water for 1 minute, then vortexed at maximum speed for 30 seconds to physically rupture the cells, and returned to the ice water. Samples were then spun for 3 minutes at 2500×g and 4° C., and the supernatant was transferred to a fresh tube. The solution was further clarified by centrifugation at 8000×g for 10 minutes at 4° C., and the supernatant was transferred to a fresh tube. Protein concentration was measured using a Nanodrop measuring the absorbance of the sample at 280 nm.
The proteasome assay used was described in Kruegel, et al. PLoS Genet. 7, (2011). The assay was performed in a 96-well clear-bottom plate (Costar 3603) with 50 μg of total protein in 200 μL of lysis buffer. The fluorogenic proteasome substrate Suc-LLVY-AMC (Bachem 1-1395) was added to a final concentration of 100 μM. Fluorescence intensity with an excitation wavelength of 380 nm and an emission wavelength of 460 nm was recorded at 5-minute intervals using a Neo2 plate reader (BioTek) set to mix constantly and maintain 30° C. Negative control reactions were performed in the presence of 50 μM MG132 (Sigma 474787), a proteasome inhibitor.

The test system of a further assay is S. cerevisiae. Type of assay: cell-based. How it is done:
To obtain the single-cell level data for the age and generation-durations of replicatively aging mother cells, data reported in Liu, P., et al., Cell Rep. 634-644 (2015) was re-analyzed. The data was collected in the same media condition (CSM 2% glucose) as reported elsewhere herein. Cells were grown for ˜24 hours in CSM 2% glucose prior to loading to the microfluidic device. Once cells were loaded, media was swapped to provide CSM 2% glucose control media (untreated), media containing DMSO as a vehicle control (American Bio AB00435), media containing 10 μM terreic acid (Sigma SML0480), media containing 10 μM mycophenolic acid (Sigma M5255), or media containing another compound at the indicated concentration. An automated microscope was used to track […], and replicative lifespan was later determined by counting the number of daughters produced before death. In the case of compound validation, only newborn cells were included in the lifespan experiment. To compare the replicative lifespan of labeled and unlabeled cells, only cells that were present within the traps at the start of the experiment were included. For these experiments, cells were loaded to the microfluidic device at an increased rate of 100 μL/min to increase the number of trapped mother cells. Green fluorescent images were also taken at the start of the experiment to confirm that the cells were visibly labeled.
Differences in lifespan characteristics were assessed through Log-Rank test using MATLAB with a cut-off value of P=0.05. The script for Log-Rank test was downloaded from MATLAB. Differences in proteasome activity were assessed using the unpaired, two-tailed, parametric t-test function of the GraphPad Prism software.
The Longevity Placement Test (LPT) was designed as a mutually exclusive, collectively exhaustive test to determine the relationship of a longevity intervention to a known genetic regulator of lifespan. For a given intervention that extends lifespan, any of three possible relationships may exist relative to a known genetic regulator of lifespan. (1) The intervention may act to extend lifespan independently from the known regulator. (2) The […] may act downstream from the known regulator, converging on a single component of the known regulator's lifespan pathway. (3) The intervention may act upstream from or upon the known regulator, ultimately modulating lifespan through the genetic regulator.
In Step 1 of the LPT, the longevity intervention is applied to a strain in which a genetic regulator of lifespan is deleted. In the event that lifespan extension from the longevity intervention is observed in this background, only possibilities (1) and (2) above remain valid (FIG. 7B). If no lifespan extension is observed, then possibilities (2) and (3) remain valid. Possibility (2) cannot be ruled out in this step, since non-saturating action by the genetic regulator could leave room for lifespan extension by the longevity intervention, while saturating action would preclude it.
In Step 2 of the LPT, an epistatic agent, which prevents lifespan extension from the longevity agent, is applied to a strain in which some upstream member of the genetic regulator's lifespan pathway has been modified to extend lifespan. This step differentiates possibility (2) from the remaining possibility after Step 1. In the event that lifespan extension from the genetic regulator's pathway is suppressed by the epistatic agent, this determines that possibility (2) is correct. In the event that no epistasis is observed, the remaining possibility, (1) or (3), is correct (FIG. 7C).

In the case of `COc1c(C)c2c(c(O)c1C/C=C(\C)CCC(=O)O)C(=O)OC2` [mycophenolic acid], in the assay on Saccharomyces cerevisiae, the “dose-response: cell survival in High-Life” value is reported as “clear concentration-dependent effects”. Moreover, the “proteasome activity in wild-type cells” value at proteasome was “did not activate the proteasome”. Besides, in the assay on S. cerevisiae (10 μM MPA only first 24 hours or only after first 24 hours, compared to whole-lifespan treatment), the “lifespan extension with treatment for only part of the lifespan” value is listed as “reduced lifespan extension compared to whole-lifespan treatment”. In the assay on S. cerevisiae (10 μM MPA, 6-hour pulse between 24th and 30th hour), the “lifespan extension with pulse treatment” value is “little to no lifespan extension”. In the assay with S. cerevisiae (10 μM compound, wild-type haploid cells, Replicator device), the “extension of mean RLS” value is 20%. In addition, the “lifespan in ΔSIR2ΔFOB1 background (LPT step 1)” value in the assay on S. cerevisiae (absence of SIR2, ΔSIR2ΔFOB1 background) is listed as “able to extend the lifespan”. In the assay with S. cerevisiae (long-lived ΔHXK2 strain), the “lifespan in ΔHXK2 strain (LPT step 1)” value is “further extended lifespan”. Moreover, the “lifespan in ΔTOR1 strain (LPT step 1)” value in the assay on S. cerevisiae (long-lived ΔTOR1 strain) was “further extended lifespan”. In addition, the “replicative lifespan (RLS) with and without supplemental guanine” value in the assay on S. cerevisiae (wild-type haploid yeast BY4741, MPA without supplemental guanine vs control and guanine supplemented) is given as “extended longevity”. Moreover, the “RLS in ΔPRE9 strain” value in the assay on S. cerevisiae (ΔPRE9 strain) is listed as “extends RLS”. Also, the “RLS in ΔUBR2 strain (LPT step 1)” value in the assay with S. cerevisiae (ΔUBR2 strain) was “moderately, but not significantly, extended RLS”.
